Measurements: PubChem BioAssay (NCI)
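Values below derive from 48-hour exposures of cells grown in 96-well plates, with endpoints linearly interpolated between the two concentrations bracketing the appropriate inhibition level. GI50 marks 50% less growth. The concentration for full growth arrest is given as TGI.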

Legend:
Experiment in all cases: NCI tumour cell line growth inhibition, 48 h
NCI-H226 lung = test system: NCI-H226 lung
MDA-MB-231 breast = test system: MDA-MB-231 breast
RXF 393 renal = test system: RXF 393 renal
K-562 leukemia = test system: K-562 leukemia
LOX IMVI melanoma = test system: LOX IMVI melanoma
HL-60(TB) leukemia = test system: HL-60(TB) leukemia
NCI/ADR-RES ovarian = test system: NCI/ADR-RES ovarian
ACHN renal = test system: ACHN renal
HOP-62 NSCLC = test system: HOP-62 NSCLC
KM12 colon = test system: KM12 colon
TK-10 renal = test system: TK-10 renal
HCT-116 colon = test system: HCT-116 colon
SNB-75 CNS = test system: SNB-75 CNS
BT-549 breast = test system: BT-549 breast
SNB-19 CNS = test system: SNB-19 CNS
CCRF-CEM leukemia = test system: CCRF-CEM leukemia
MALME-3M melanoma = test system: MALME-3M melanoma
SN12C renal = test system: SN12C renal
SF-268 CNS = test system: SF-268 CNS
SK-MEL-2 melanoma = test system: SK-MEL-2 melanoma
OVCAR-5 ovarian = test system: OVCAR-5 ovarian
SR leukemia = test system: SR leukemia
COLO 205 colon = test system: COLO 205 colon
HCC-2998 colon = test system: HCC-2998 colon
SF-539 CNS = test system: SF-539 CNS
MDA-MB-435 = test system: MDA-MB-435
SK-MEL-5 melanoma = test system: SK-MEL-5 melanoma
HCT-15 colon = test system: HCT-15 colon
NCI-H460 lung = test system: NCI-H460 lung
UACC-257 melanoma = test system: UACC-257 melanoma
UACC-62 melanoma = test system: UACC-62 melanoma
OVCAR-3 ovarian = test system: OVCAR-3 ovarian
NCI-H522 lung = test system: NCI-H522 lung
SK-MEL-28 melanoma = test system: SK-MEL-28 melanoma
HS 578T breast = test system: HS 578T breast
OVCAR-8 ovarian = test system: OVCAR-8 ovarian
RPMI-8226 leukemia = test system: RPMI-8226 leukemia
U251 CNS = test system: U251 CNS
SF-295 CNS = test system: SF-295 CNS
MOLT-4 leukemia = test system: MOLT-4 leukemia
A549 NSCLC = test system: A549 NSCLC
MCF7 breast = test system: MCF7 breast
HT29 colon = test system: HT29 colon
A498 renal = test system: A498 renal
IGROV1 ovarian = test system: IGROV1 ovarian
T-47D breast = test system: T-47D breast
PC-3 prostate = test system: PC-3 prostate
EKVX NSCLC = test system: EKVX NSCLC
786-0 renal = test system: 786-0 renal
SW-620 colon = test system: SW-620 colon
SK-OV-3 ovarian = test system: SK-OV-3 ovarian
CAKI-1 renal = test system: CAKI-1 renal
DU-145 prostate = test system: DU-145 prostate
HOP-92 NSCLC = test system: HOP-92 NSCLC
UO-31 renal = test system: UO-31 renal
OVCAR-4 ovarian = test system: OVCAR-4 ovarian
NCI-H23 lung = test system: NCI-H23 lung

With `O=c1cc(NCC(O)CN2CCCC2)n(Cc2ccccc2)c(=O)n1Cc1ccccc1` (centres undefined) the GI50 (NCI-H226 lung) was greater than 100 µM, the TGI (NCI-H226 lung) was greater than 100 µM and the GI50 (MDA-MB-231 breast) was 26.3 µM. For the same molecule, the TGI (MDA-MB-231 breast) was 70.6 µM, the GI50 (RXF 393 renal) was 46 µM and the TGI (RXF 393 renal) was greater than 100 µM. It also gave a GI50 (K-562 leukemia) of 25.2 µM, a TGI (K-562 leukemia) of 60.5 µM and a GI50 (LOX IMVI melanoma) of 18.5 µM. It also gave a TGI (LOX IMVI melanoma) of 38.7 µM, a GI50 (HL-60(TB) leukemia) of 7.81 µM and a TGI (HL-60(TB) leukemia) of 30.3 µM. The GI50 (NCI/ADR-RES ovarian) was greater than 100 µM, the TGI (NCI/ADR-RES ovarian) was greater than 100 µM and the GI50 (ACHN renal) was greater than 100 µM. The TGI (ACHN renal) was greater than 100 µM, the GI50 (HOP-62 NSCLC) was 18.7 µM and the TGI (HOP-62 NSCLC) was 54.4 µM. The GI50 (KM12 colon) was 18.5 µM, the TGI (KM12 colon) was 36.5 µM and the GI50 (TK-10 renal) was greater than 100 µM. For the same molecule, the TGI (TK-10 renal) was greater than 100 µM, the GI50 (HCT-116 colon) was 13.6 µM and the TGI (HCT-116 colon) was 33.3 µM. The GI50 (SNB-75 CNS) was 25.3 µM, the TGI (SNB-75 CNS) was 81.5 µM and the GI50 (BT-549 breast) was 61.6 µM. For the same molecule, the TGI (BT-549 breast) was greater than 100 µM, the GI50 (SNB-19 CNS) was greater than 100 µM and the TGI (SNB-19 CNS) was greater than 100 µM. It also gave a GI50 (CCRF-CEM leukemia) of 28.1 µM, a TGI (CCRF-CEM leukemia) of 80.6 µM and a GI50 (MALME-3M melanoma) of 22.6 µM. For the same molecule, the TGI (MALME-3M melanoma) was 61.7 µM, the GI50 (SN12C renal) was greater than 100 µM and the TGI (SN12C renal) was greater than 100 µM. The GI50 (SF-268 CNS) was 47.5 µM, the TGI (SF-268 CNS) was greater than 100 µM and the GI50 (SK-MEL-2 melanoma) was greater than 100 µM. For the same molecule, the TGI (SK-MEL-2 melanoma) was greater than 100 µM, the GI50 (OVCAR-5 ovarian) was greater than 100 µM and the TGI (OVCAR-5 ovarian) was greater than 100 µM. For the same molecule, the GI50 (SR leukemia) was 847 nM, the TGI (SR leukemia) was 31 µM and the GI50 (COLO 205 colon) was 19.3 µM. For the same molecule, the TGI (COLO 205 colon) was 40.4 µM, the GI50 (HCC-2998 colon) was 25.8 µM and the TGI (HCC-2998 colon) was 77.7 µM. The GI50 (SF-539 CNS) was greater than 100 µM, the TGI (SF-539 CNS) was greater than 100 µM and the GI50 (MDA-MB-435) was 26.7 µM. The TGI (MDA-MB-435) was 65.8 µM, the GI50 (SK-MEL-5 melanoma) was 17.1 µM and the TGI (SK-MEL-5 melanoma) was 32.2 µM. For the same molecule, the GI50 (HCT-15 colon) was 50.9 µM, the TGI (HCT-15 colon) was greater than 100 µM and the GI50 (NCI-H460 lung) was 39.7 µM. The TGI (NCI-H460 lung) was greater than 100 µM, the GI50 (UACC-257 melanoma) was 31.9 µM and the TGI (UACC-257 melanoma) was 85.6 µM. The GI50 (UACC-62 melanoma) was 20.9 µM, the TGI (UACC-62 melanoma) was 47.3 µM and the GI50 (OVCAR-3 ovarian) was greater than 100 µM. For the same molecule, the TGI (OVCAR-3 ovarian) was greater than 100 µM, the GI50 (NCI-H522 lung) was 79.3 µM and the TGI (NCI-H522 lung) was greater than 100 µM. The GI50 (SK-MEL-28 melanoma) was 16.7 µM, the TGI (SK-MEL-28 melanoma) was 34.6 µM and the GI50 (HS 578T breast) was 37 µM. It also gave a TGI (HS 578T breast) greater than 100 µM, a GI50 (OVCAR-8 ovarian) greater than 100 µM and a TGI (OVCAR-8 ovarian) greater than 100 µM. It also gave a GI50 (RPMI-8226 leukemia) of 22.6 µM, a TGI (RPMI-8226 leukemia) of 46.5 µM and a GI50 (U251 CNS) of 43.6 µM. The TGI (U251 CNS) was greater than 100 µM, the GI50 (SF-295 CNS) was 46.6 µM and the TGI (SF-295 CNS) was greater than 100 µM. The GI50 (MOLT-4 leukemia) was 24.3 µM, the TGI (MOLT-4 leukemia) was 72.8 µM and the GI50 (A549 NSCLC) was greater than 100 µM. It also gave a TGI (A549 NSCLC) greater than 100 µM, a GI50 (MCF7 breast) of 19.1 µM and a TGI (MCF7 breast) of 34.8 µM. The GI50 (HT29 colon) was 20 µM, the TGI (HT29 colon) was 49 µM and the GI50 (A498 renal) was greater than 100 µM. For the same molecule, the TGI (A498 renal) was greater than 100 µM, the GI50 (IGROV1 ovarian) was 26.6 µM and the TGI (IGROV1 ovarian) was 95.4 µM. It also gave a GI50 (T-47D breast) of 52.4 µM, a TGI (T-47D breast) greater than 100 µM and a GI50 (PC-3 prostate) of 26.9 µM. It also gave a TGI (PC-3 prostate) of 84.1 µM, a GI50 (EKVX NSCLC) greater than 100 µM and a TGI (EKVX NSCLC) greater than 100 µM. The GI50 (786-0 renal) was 32.3 µM, the TGI (786-0 renal) was greater than 100 µM and the GI50 (SW-620 colon) was 41.1 µM. For the same molecule, the TGI (SW-620 colon) was greater than 100 µM, the GI50 (SK-OV-3 ovarian) was greater than 100 µM and the TGI (SK-OV-3 ovarian) was greater than 100 µM. It also gave a GI50 (CAKI-1 renal) greater than 100 µM, a TGI (CAKI-1 renal) greater than 100 µM and a GI50 (DU-145 prostate) of 87 µM. The TGI (DU-145 prostate) was greater than 100 µM, the GI50 (HOP-92 NSCLC) was 14.9 µM and the TGI (HOP-92 NSCLC) was greater than 100 µM. It also gave a GI50 (UO-31 renal) of 45.8 µM, a TGI (UO-31 renal) greater than 100 µM and a GI50 (OVCAR-4 ovarian) of 58.3 µM. The TGI (OVCAR-4 ovarian) was greater than 100 µM, the GI50 (NCI-H23 lung) was 92 µM and the TGI (NCI-H23 lung) was greater than 100 µM.
